# Measured values published in patent publication US20250011368A1, “DLL3 TARGETING PEPTIDES AND CONSTRUCTS THEREOF” (MARIANA ONCOLOGY INC., priority 2023, published 2025).
# Bridge positions count the residues as written; N and C are the ends. Square brackets hold non-standard residues; d marks the D form. Peptide text beside a SMILES is read from it. * marks the point of attachment. ξ: configuration not given here. DOTA = O=C(O)CN1CCN(CC(=O)O)CCN(CC(=O)*)CCN(CC(=O)O)CC1; Trp(5-F) = N[C@@H](Cc1c[nH]c2ccc(F)cc12)C(=O)O; Phe(2-CF3) = N[C@@H](Cc1ccccc1C(F)(F)F)C(=O)O; Trp(7-aza) = N[C@@H](Cc1c[nH]c2ncccc12)C(=O)O; Pro(trans-4-F) = O=C(O)[C@@H]1C[C@@H](F)CN1; Phe(4-F) = N[C@@H](Cc1ccc(F)cc1)C(=O)O; Gly(4-THP) = N[C@H](C(=O)O)C1CCOCC1; Nva(3-Et) = CCC(CC)[C@H](N)C(=O)O; Cha = N[C@@H](CC1CCCCC1)C(=O)O; Cba = N[C@@H](CC1CCC1)C(=O)O; Chg = N[C@H](C(=O)O)C1CCCCC1; Tle = CC(C)(C)[C@H](N)C(=O)O; Nle = CCCC[C@H](N)C(=O)O; Aze = O=C(O)[C@@H]1CCN1; ξK = NCCCCC(N)C(=O)O
# Biological target: T1, human DLL3 (Homo sapiens, UniProt Q9NYJ7)
# T1 sequence (Q9NYJ7 27-618): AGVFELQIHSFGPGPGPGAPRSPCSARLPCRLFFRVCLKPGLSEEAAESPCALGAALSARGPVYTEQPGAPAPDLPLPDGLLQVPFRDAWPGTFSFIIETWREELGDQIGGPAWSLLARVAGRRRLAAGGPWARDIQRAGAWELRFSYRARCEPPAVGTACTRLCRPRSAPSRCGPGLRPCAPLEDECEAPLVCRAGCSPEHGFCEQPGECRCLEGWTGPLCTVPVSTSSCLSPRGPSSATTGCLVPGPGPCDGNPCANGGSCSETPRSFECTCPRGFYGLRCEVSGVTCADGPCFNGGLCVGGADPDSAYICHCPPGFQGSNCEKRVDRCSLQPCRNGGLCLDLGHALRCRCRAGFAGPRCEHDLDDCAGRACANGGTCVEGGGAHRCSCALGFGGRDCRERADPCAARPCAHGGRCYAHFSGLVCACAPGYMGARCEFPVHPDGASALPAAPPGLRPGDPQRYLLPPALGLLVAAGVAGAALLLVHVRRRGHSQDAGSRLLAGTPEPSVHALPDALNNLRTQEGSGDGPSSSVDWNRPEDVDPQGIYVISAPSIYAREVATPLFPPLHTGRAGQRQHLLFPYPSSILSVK
# Assay: Affinity determination by Surface Plasmon Resonance (SPR)
# Format: binding
# Details: 25° C., biotinylated human DLL3 immobilized on streptavidin sensor chip, 1:1 binding model; read-out: SPR KD
# Description: SPR studies were performed on the compounds disclosed herein using the following protocol.
# Biotinylated target ligand human DLL3 was immobilized on a streptavidin sensor chip. A reference surface was set up for nonspecific binding and refractive index changes. For analysis of the kinetics of interactions, varying concentrations of samples were injected at a flow rate of 100 μL/minute using running buffer containing 20 mM phosphate buffer with 2.7 mM KCl, 137 mM NaCl, 0.05% Surfactant P20 and 2% DMSO. Sensorgram curves were fitted with 1:1 binding model, and affinity and kinetic parameters were obtained using Biacore Insight evaluation 4.0. software.
row,Compound,Kd [µM]
1,"CC(=O)N[C@@H](Cc1c[nH]c2ccc(F)cc12)C(=O)N[C@H](C(=O)N[C@H](C(=O)N[C@H]1CSSC[C@@H](C(=O)N[C@@H](Cc2c[nH]c3ncccc23)C(=O)N2CC[C@H]2C(=O)NC(CCCCNC(=O)CN2CCN(CC(=O)O)CCN(CC(=O)O)CCN(CC(=O)O)CC2)C(N)=O)NC(=O)[C@H](CC(=O)O)NC(=O)[C@H](Cc2cnc[nH]2)NC(=O)[C@H](Cc2ccc(F)cc2)NC(=O)[C@H](CC(N)=O)NC(=O)[C@H](CC(N)=O)NC1=O)C1CCOCC1)[C@@H](C)O (stereo partly drawn) [compound 123, Ac-(5Fluoro-W)-T-(THPG)-C(3)-N-N-(4Fluoro-F)-H-D-C(3)-(7Aza-W)-(Aze)-[D-Lys(DOTA)]-NH2] (Ac-[Trp(5-F)]T[Gly(4-THP)]CNN[Phe(4-F)]HDC[Trp(7-aza)][Aze][ξK](DOTA)-NH2; disulfide 4-10)",0.01 to 0.1
2,"CCCC[C@H](NC(=O)[C@@H](NC(=O)[C@H](Cc1c[nH]c2ccc(F)cc12)NC(C)=O)[C@@H](C)O)C(=O)N[C@H]1CSSC[C@@H](C(=O)N[C@@H](Cc2c[nH]c3ncccc23)C(=O)N2CC[C@H]2C(=O)NC(CCCCNC(=O)CN2CCN(CC(=O)O)CCN(CC(=O)O)CCN(CC(=O)O)CC2)C(N)=O)NC(=O)[C@H](CC(=O)O)NC(=O)[C@H](Cc2cnc[nH]2)NC(=O)[C@H](Cc2ccc(F)cc2)NC(=O)[C@H](CC(N)=O)NC(=O)[C@H](CC(N)=O)NC1=O (stereo partly drawn) [compound 124, Ac-(5Fluoro-W)-T-(Nle)-C(3)-N-N-(4Fluoro-F)-H-D-C(3)-(7Aza-W)-(Aze)-[D-Lys(DOTA)]-NH2] (Ac-[Trp(5-F)]T[Nle]CNN[Phe(4-F)]HDC[Trp(7-aza)][Aze][ξK](DOTA)-NH2; disulfide 4-10)",0.01 to 0.1
3,"CC(=O)N[C@@H](Cc1c[nH]c2ccc(F)cc12)C(=O)N[C@H](C(=O)N[C@@H](CC1CCCCC1)C(=O)N[C@H]1CSSC[C@@H](C(=O)N[C@@H](Cc2c[nH]c3ncccc23)C(=O)N2CC[C@H]2C(=O)N[C@H](CCCCNC(=O)CN2CCN(CC(=O)O)CCN(CC(=O)O)CCN(CC(=O)O)CC2)C(N)=O)NC(=O)[C@H](CC(=O)O)NC(=O)[C@H](Cc2cnc[nH]2)NC(=O)[C@H](Cc2ccc(F)cc2)NC(=O)[C@H](CC(N)=O)NC(=O)[C@H](CC(N)=O)NC1=O)[C@@H](C)O [compound 125, Ac-(5Fluoro-W)-T-(CHA)-C(3)-N-N-(4Fluoro-F)-H-D-C(3)-(7Aza-W)-(Aze)-[D-Lys(DOTA)]-NH2] (Ac-[Trp(5-F)]T[Cha]CNN[Phe(4-F)]HDC[Trp(7-aza)][Aze][dK](DOTA)-NH2; disulfide 4-10)",0.001 to 0.01
4,"CC(=O)N[C@@H](Cc1c[nH]c2ccc(F)cc12)C(=O)N[C@H](C(=O)N[C@@H](CC1CCC1)C(=O)N[C@H]1CSSC[C@@H](C(=O)N[C@@H](Cc2c[nH]c3ncccc23)C(=O)N2CC[C@H]2C(=O)N[C@H](CCCCNC(=O)CN2CCN(CC(=O)O)CCN(CC(=O)O)CCN(CC(=O)O)CC2)C(N)=O)NC(=O)[C@H](CC(=O)O)NC(=O)[C@H](Cc2cnc[nH]2)NC(=O)[C@H](Cc2ccc(F)cc2)NC(=O)[C@H](CC(N)=O)NC(=O)[C@H](CC(N)=O)NC1=O)[C@@H](C)O [compound 126, Ac-(5Fluoro-W)-T-(CBA)-C(3)-N-N-(4Fluoro-F)-H-D-C(3)-(7Aza-W)-(Aze)-[D-Lys(DOTA)]-NH2] (Ac-[Trp(5-F)]T[Cba]CNN[Phe(4-F)]HDC[Trp(7-aza)][Aze][dK](DOTA)-NH2; disulfide 4-10)",0.01 to 0.1
5,"CC(=O)N[C@@H](Cc1c[nH]c2ccc(F)cc12)C(=O)N[C@H](C(=O)N[C@H](C(=O)N[C@H]1CSSC[C@@H](C(=O)N[C@@H](Cc2c[nH]c3ncccc23)C(=O)N2CC[C@H]2C(=O)N[C@H](CCCCNC(=O)CN2CCN(CC(=O)O)CCN(CC(=O)O)CCN(CC(=O)O)CC2)C(N)=O)NC(=O)[C@H](CC(=O)O)NC(=O)[C@H](Cc2cnc[nH]2)NC(=O)[C@H](Cc2ccc(F)cc2)NC(=O)[C@H](CC(N)=O)NC(=O)[C@H](CC(N)=O)NC1=O)C1CCCCC1)[C@@H](C)O [compound 127, Ac-(5Fluoro-W)-T-(Chg)-C(3)-N-N-(4Fluoro-F)-H-D-C(3)-(7Aza-W)-(Aze)-[D-Lys(DOTA)]-NH2] (Ac-[Trp(5-F)]T[Chg]CNN[Phe(4-F)]HDC[Trp(7-aza)][Aze][dK](DOTA)-NH2; disulfide 4-10)",0.01 to 0.1
6,"CC(=O)N[C@@H](Cc1c[nH]c2ccc(F)cc12)C(=O)N[C@H](C(=O)N[C@@H](Cc1ccccc1C(F)(F)F)C(=O)N[C@H]1CSSC[C@@H](C(=O)N[C@@H](Cc2c[nH]c3ncccc23)C(=O)N2CC[C@H]2C(=O)N[C@H](CCCCNC(=O)CN2CCN(CC(=O)O)CCN(CC(=O)O)CCN(CC(=O)O)CC2)C(N)=O)NC(=O)[C@H](CC(=O)O)NC(=O)[C@H](Cc2cnc[nH]2)NC(=O)[C@H](Cc2ccc(F)cc2)NC(=O)[C@H](CC(N)=O)NC(=O)[C@H](CC(N)=O)NC1=O)[C@@H](C)O [compound 128, Ac-(5Fluoro-W)-T-(2CF3-F)-C(3)-N-N-(4Fluoro-F)-H-D-C(3)-(7Aza-W)-(Aze)-[D-Lys(DOTA)]-NH2] (Ac-[Trp(5-F)]T[Phe(2-CF3)]CNN[Phe(4-F)]HDC[Trp(7-aza)][Aze][dK](DOTA)-NH2; disulfide 4-10)",0.001 to 0.01
7,"CC(=O)N[C@@H](Cc1c[nH]c2ccc(F)cc12)C(=O)N[C@H](C(=O)N[C@H](C(=O)N[C@H]1CSSC[C@@H](C(=O)N[C@@H](Cc2c[nH]c3ncccc23)C(=O)N2C[C@H](F)C[C@H]2C(=O)N[C@H](CCCCNC(=O)CN2CCN(CC(=O)O)CCN(CC(=O)O)CCN(CC(=O)O)CC2)C(N)=O)NC(=O)[C@H](CC(=O)O)NC(=O)[C@H](Cc2cnc[nH]2)NC(=O)[C@H](Cc2ccc(F)cc2)NC(=O)[C@H](CC(N)=O)NC(=O)[C@H](CC(N)=O)NC1=O)C(C)(C)C)[C@@H](C)O [compound 129, Ac-(5Fluoro-W)-T-(Tbg)-C(3)-N-N-(4Fluoro-F)-H-D-C(3)-(7Aza-W)-(trans4Fluoro-P)-[D-Lys(DOTA)]-NH2] (Ac-[Trp(5-F)]T[Tle]CNN[Phe(4-F)]HDC[Trp(7-aza)][Pro(trans-4-F)][dK](DOTA)-NH2; disulfide 4-10)",0.01 to 0.1
8,"CCC(CC)[C@H](NC(=O)[C@@H](NC(=O)[C@H](Cc1c[nH]c2ccc(F)cc12)NC(C)=O)[C@@H](C)O)C(=O)N[C@H]1CSSC[C@@H](C(=O)N[C@@H](Cc2c[nH]c3ncccc23)C(=O)N2C[C@H](F)C[C@H]2C(=O)N[C@H](CCCCNC(=O)CN2CCN(CC(=O)O)CCN(CC(=O)O)CCN(CC(=O)O)CC2)C(N)=O)NC(=O)[C@H](CC(=O)O)NC(=O)[C@H](Cc2c[nH]cn2)NC(=O)[C@H](Cc2ccc(F)cc2)NC(=O)[C@H](CC(N)=O)NC(=O)[C@H](CC(N)=O)NC1=O [compound 130, Ac-(5Fluoro-W)-T-(Env)-C(3)-N-N-(4Fluoro-F)-H-D-C(3)-(7Aza-W)-(trans4Fluoro-P)-[D-Lys(DOTA)]-NH2] (Ac-[Trp(5-F)]T[Nva(3-Et)]CNN[Phe(4-F)]HDC[Trp(7-aza)][Pro(trans-4-F)][dK](DOTA)-NH2; disulfide 4-10)",0.001 to 0.01
9,"CC(=O)N[C@@H](Cc1c[nH]c2ccc(F)cc12)C(=O)N[C@H](C(=O)N[C@H](C(=O)N[C@H]1CSSC[C@@H](C(=O)N[C@@H](Cc2c[nH]c3ncccc23)C(=O)N2C[C@H](F)C[C@H]2C(=O)N[C@H](CCCCNC(=O)CN2CCN(CC(=O)O)CCN(CC(=O)O)CCN(CC(=O)O)CC2)C(N)=O)NC(=O)[C@H](CC(=O)O)NC(=O)[C@H](Cc2cnc[nH]2)NC(=O)[C@H](Cc2ccc(F)cc2)NC(=O)[C@H](CC(N)=O)NC(=O)[C@H](CC(N)=O)NC1=O)C1CCOCC1)[C@@H](C)O [compound 131, Ac-(5Fluoro-W)-T-(THPG)-C(3)-N-N-(4Fluoro-F)-H-D-C(3)-(7Aza-W)-(trans4Fluoro-P)-[D-Lys(DOTA)]-NH2] (Ac-[Trp(5-F)]T[Gly(4-THP)]CNN[Phe(4-F)]HDC[Trp(7-aza)][Pro(trans-4-F)][dK](DOTA)-NH2; disulfide 4-10)",0.001 to 0.01
10,"CCCC[C@H](NC(=O)[C@@H](NC(=O)[C@H](Cc1c[nH]c2ccc(F)cc12)NC(C)=O)[C@@H](C)O)C(=O)N[C@H]1CSSC[C@@H](C(=O)N[C@@H](Cc2c[nH]c3ncccc23)C(=O)N2C[C@H](F)C[C@H]2C(=O)N[C@H](CCCCNC(=O)CN2CCN(CC(=O)O)CCN(CC(=O)O)CCN(CC(=O)O)CC2)C(N)=O)NC(=O)[C@H](CC(=O)O)NC(=O)[C@H](Cc2cnc[nH]2)NC(=O)[C@H](Cc2ccc(F)cc2)NC(=O)[C@H](CC(N)=O)NC(=O)[C@H](CC(N)=O)NC1=O [compound 132, Ac-(5Fluoro-W)-T-(Nle)-C(3)-N-N-(4Fluoro-F)-H-D-C(3)-(7Aza-W)-(trans4Fluoro-P)-[D-Lys(DOTA)]-NH2] (Ac-[Trp(5-F)]T[Nle]CNN[Phe(4-F)]HDC[Trp(7-aza)][Pro(trans-4-F)][dK](DOTA)-NH2; disulfide 4-10)",0.001 to 0.01
